US20230226065A1, “ANTI-INFLAMMATORY COMPOSITIONS, METHODS AND USES THEREOF” (COMVITA LIMITED, priority 2020, published 2023)

Columns and labels:
[1] = target: T1, recombinant MMP-9 enzyme (Homo sapiens, UniProt P14780); test: MMP-9 inhibitor screening assay (fluorometric); format: biochemical; settings: 40 μg/ml; no significant difference to NNGH control
T1 construct: purchased Abcam ab139449
Procedure: The MMP-9 inhibitor screening assay (fluorometric) kits were purchased from Abcam (Melbourne, Australia). The fluorometric kit contains the recombinant MMP-9 enzyme, MMP inhibitor NNGH (N-isobutyl-N-[4-methoxyphenylsulfonyl]glycyl hydroxamic acid), MMP fluorogenic substrate solubilised in DMSO, the fluorometric assay buffer and 96-well clear microplate.
Inhibitory activity on MMP-9 was assessed using the commercial MMP-9 inhibitor screening assay kit. MMP-9 activity was expressed as a change in fluorescence intensity measured using SpectraMax iD3 multi-mode microplate reader (Molecular Devices, San Jose, USA).
The assay employs a FRET-tagged (fluorescence resonance energy transfer) substrate, which can be hydrolysed by MMP-9 at a specific site (Abcam, 2018). The cleavage of the FRET substrate releases the quenched fluorescent Mca (7-methoxycoumarin-4-yl)-acetyl group (Abcam, 2018). The kit employs a quenched fluorogenic substrate Mca-Pro-Leu-Gly-Leu-Dpa-Ala-Arg-NH2, where the Mca fluorescence is quenched by Dpa until cleavage by MMPs. The amount of fluorescent product yielded by MMP-9 can be detected fluorometrically and it is proportional to the enzyme activity. Fluorescence were measured at ex320 nm-em395 nm to minimise fluorescence interference from 3,6,7-trimethyllumazine at ex330 nm-em470 nm. […]

[2] = test system: differentiated THP-1 cells; test: WST-1 cell viability, differentiated THP-1 cells; format: cell-based; settings: for cell death: human
Procedure: To measure cytotoxicity of 3,6,7-trimethyllumazine at different doses, 2-(4-Iodophenyl)-3-(4-nitrophenyl)-5-(2,4-disulfophenyl)-2H-tetrazolium, monosodium salt (WST-1) (Roche, 11644807001, Lot #45255800) was used. WST-1 is a cell proliferation reagent for measurement of cellular proliferation, viability, and cytotoxicity using a colorimetric assay (Gosert (2011); Peskin (2000)).
After incubation, a portion of the culture media was taken and stored for MMP-9 secretion testing using ELISA. The remaining media in the plates was then removed and 100 μl of WST-1 in RPMI-1640 media (1:10 dilution) was added to each cell well and incubated at 37° C. for a further 4 hours. The plates were then read using a plate reader at wavelength of 450 nm. Cytotoxicity was calculated as follows:
[WST-1 score for each sample/WST-1 score for the control]×100
A WST-1 score below 80% will be considered cytotoxic.

T1 sequence (P14780 94-707): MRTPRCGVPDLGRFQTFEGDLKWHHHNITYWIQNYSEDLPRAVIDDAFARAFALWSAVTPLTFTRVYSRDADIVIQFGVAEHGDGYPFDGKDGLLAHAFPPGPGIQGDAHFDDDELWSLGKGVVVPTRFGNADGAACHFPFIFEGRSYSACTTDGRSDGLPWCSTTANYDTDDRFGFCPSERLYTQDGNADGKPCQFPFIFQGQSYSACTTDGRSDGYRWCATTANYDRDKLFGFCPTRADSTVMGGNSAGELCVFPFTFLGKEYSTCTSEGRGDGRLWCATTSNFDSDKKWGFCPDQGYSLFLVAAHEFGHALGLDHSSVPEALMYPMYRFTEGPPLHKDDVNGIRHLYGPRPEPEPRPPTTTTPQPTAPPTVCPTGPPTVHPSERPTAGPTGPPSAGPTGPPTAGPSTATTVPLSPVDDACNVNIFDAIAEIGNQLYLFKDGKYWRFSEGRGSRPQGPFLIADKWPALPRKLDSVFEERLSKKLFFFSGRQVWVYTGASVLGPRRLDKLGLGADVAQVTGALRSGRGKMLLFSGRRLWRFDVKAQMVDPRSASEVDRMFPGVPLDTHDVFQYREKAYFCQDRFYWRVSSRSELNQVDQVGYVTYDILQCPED

Cc1nc2[nH]c(=O)n(C)c(=O)c2nc1C [3,6,7-trimethyllumazine]
inhibition of MMP-9 activity [1]: almost completely inhibited
WST-1 score (cell viability) ([2]; 40 μg/mL, below 80% considered cytotoxic): 79.8%
cell death ([2]; 30 μg/mL): 13%
cell death ([2]; 40 μg/mL): 20%
